According to US20250101027A1, “ORGANIC COMPOUND, LIGHT-EMITTING DEVICE, LIGHT-EMITTING APPARATUS, AND ELECTRONIC APPLIANCE” (SEMICONDUCTOR ENERGY LABORATORY CO., LTD., priority 2023, published 2025):
Converted amounts (≈) assume the structure as drawn.

Experiment: Solubility test in water by LC-MS analysis
Format: physicochemical
Conditions: for peak area value derived from the compound through the LC-MS analysis (solubility test in water): ultrasonic waves five minutes, filtrate diluted five times with acetonitrile, one atmosphere, room temperature
Method: Next, a solubility test of PrdP2Phen was performed. Note that the solubility test was conducted at a pressure of one atmosphere, at room temperature (RT).
In the LC-MS analysis, liquid chromatography (LC) separation was carried out with ACQUITY UPLC manufactured by Waters Corporation, and MS analysis (mass spectrometry) was carried out with Xevo G2 Tof MS manufactured by Waters Corporation. Acquity UPLC BEH C8 (2.1×100 mm, 1.7 μm) was used as a column for the LC separation. Acetonitrile was used for Mobile Phase A and a 0.1% aqueous solution of formic acid was used for Mobile Phase B. The injection amount of the sample was 5.0 μL. Note that in the analysis, the wavelength of a photodiode array detector was set to 263 nm±1 nm.
(§1) In a 5-mL sample bottle, I mg of PrdP2Phen was put and 1 mL of water was added thereto. This mixture was irradiated with ultrasonic waves for five minutes. This mixture was filtered through a membrane filter to remove the solid, and the resulting filtrate was diluted by five times with acetonitrile. The obtained solution was subjected to LC-MS analysis.
In a 5-mL sample bottle, 1 mg of Pyrrd-Phen was put and 2 mL of toluene was added thereto. This mixture was irradiated with ultrasonic waves for five minutes. After it was confirmed that the solid was completely dissolved, this solution was diluted by 5 times with acetonitrile, whereby the concentration of the solution was adjusted to 100 mg/L. This solution was diluted with a 3:7 toluene-acetonitrile mixed solvent, whereby a solution with a concentration of 20 mg/L, a solution with a concentration of 10 mg/L, and a solution with a concentration of 5 mg/L were prepared. The prepared solutions were subjected to LC-MS analysis, and the peak area values derived from Pyrrd-Phen, which were obtained at the respective solution concentrations, were used to form calibration curves.
Next, the water solubility of Pyrrd-Phen was measured.
as §1, with “bottle, 1” for “bottle, I”, “of Pyrrd-Phen” for “of PrdP2Phen”
Next, a solubility test of Hid-PrdPPhen was performed. Note that the solubility test was conducted at a pressure of one atmosphere at room temperature (RT).
In the LC-MS analysis, liquid chromatography (LC) separation was carried out with ACQUITY UPLC manufactured by Waters Corporation, and MS analysis (mass spectrometry) was carried out with Xevo G2 Tof MS manufactured by Waters Corporation. Acquity UPLC BEH C8 (2.1×100 mm, 1.7 μm) was used as a column for the LC separation. […]

[1] = 1 mg in 1 mL of water, filtered

| peak area value derived from the compound through the LC-MS analysis (solubility test in water) [1] | water solubility (in words) (conclusion from LC-MS solubility test) | solubility at 5 min (thermodynamic from solid, from calibration curve and LC-MS signal intensity, 1 mg in 1 mL of water, sonicated, filtered) [µg/mL] | SMILES |
| --- | --- | --- | --- |
| failed to be obtained | – | – | c1cc(-c2ccc(N3CCCC3)cc2)c2ccc3c(N4CC5CCCCC5C4)ccnc3c2n1 (stereo not shown) [Hid-PrdPPhen, 4-(2,3,3a,4,5,6,7,7a-octahydro-1H-isoindol-2-yl)-7-[4-(I-pyrrolidinyl)phenyl]-1,10-phenanthroline] |
| failed to be obtained | – | – | c1cc(-c2ccc(N3CCCC3)cc2)c2ccc3c(-c4ccc(N5CCCC5)cc4)ccnc3c2n1 [PrdP2Phen, 4,7-bis[4-(1-pyrrolidinyl)phenyl]-1,10-phenanthroline] |
| – | high water solubility | 59 (≈ 185 µM) | c1cc(N2CCCC2)c2ccc3c(N4CCCC4)ccnc3c2n1 [Pyrrd-Phen, 4,7-di-1-pyrrolidinyl-1,10-phenanthroline] |
